In the assay the test system is healthy adult females. Nature of the assay: CNV (contingent negative variation) brain wave measurement of sedative effect. In kind it is in vivo, human. The note with it: 1 mass % solution in ethanol, inhaled from cotton pad below the nose; three to six healthy adult females; FIG. 1. An excerpt: Measured was fluctuation in the negative potential of the event-related potential, a type of brain wave, which is also called contingent negative variation (hereinafter, referred to as CNV). The fluctuation intensity of the earlier component of the CNV brain wave is reported to show a positive correlation with the level of consciousness such as attention or expectation, and thus, the CNV brain wave can be used for quantitative evaluation of the effect of a fragrance on the consciousness level (sedated/stimulated) (Torii S. et al., Contingent negative variation (CNV) and the psychological effects of odour. In Perfumery: The Psychology and Biology of Fragrance, Edited by Toller S. V. and Dodd G. H., pp. 107-120, Chapman and Hall, London (1998)).
In the present invention, electrodes were adhered to the […] (Cz) and the left ear (A1) of a subject, and the voltage between the electrodes was measured with an electroencephalograph. The subject was made to listen to a click sound via headphone and push a switch in hand in response to a light-emitting diode flashing few seconds after the click sound, and the CNV brain wave was determined during the operation. In the test with fragrance, a perfume composition was allowed to penetrate into a square cotton pad of approximately 0.5 0.5 cm in size; the cotton pad was placed below the nose; and the subject was allowed to inhale the fragrance together with normal breathing during the series of operations above. […] The CNV brain waves were measured 30 times with and without fragrance respectively, and the fragrance effect was evaluated by comparing the integrated values of the earlier component of the CNV brain wave 400 to 1,000 ms after the click.
o-dimethoxybenzene (o-DMB), m-dimethoxybenzene (m-DMB), and p-dimethoxybenzene (p-DMB) were dissolved respectively in ethanol, to give 1 mass % solutions, and the effect thereof on CNV was measured according to the test method as above. […]

Each structure is given as a SMILES string. Entries after “also recorded” stand apart in the source; their conditions may differ.

Take `COc1cccc(OC)c1` [m-dimethoxybenzene]: the “sedative effect (effect on CNV)” value is recorded as “favorable effect that leads the subject to sedative direction; also recorded: particularly favorable sedative effect”.

For the compound `COc1ccccc1OC` [o-dimethoxybenzene], the “sedative effect (effect on CNV)” value was “favorable effect that leads the subject to sedative direction; also recorded: particularly favorable sedative effect”.

With `COc1ccc(OC)cc1` [p-dimethoxybenzene], the “sedative effect (effect on CNV)” value is on record as “favorable effect that leads the subject to sedative direction”.

The values above are taken from US20090069443A1, “Sedative Effect-Imparting Agent And Sedative Perfume Composition Containing The Same” (Shiseido Co., Ltd., priority 2005, published 2009).
